Reference: US10633423B2, “IL-6-binding polypeptide complex” (AFFIBODY AB, priority 2014, dated 2020)

Experiments:
[1] = RA patients, monotherapy, Gabay et al 2013; cited from earlier work
[2] = test system: IL-6/TNF-dependent proliferation of TF-1 cells; experiment: TF-1 cell assay, stimulated with both IL-6 and TNF (Example 11); type: cell-based, human; settings: TF-1 cells simultaneously stimulated with IL-6 and TNF
Protocol: TF-1 cells were cultured in RPMI1640 with L-glut (Lonza) supplemented with 10% FCS (Gibco), Pen-Strep (Lonza) and 2 ng/ml rhGM-CSF (R&D Systems). Prior to use, the cells were washed twice in RPMI1640 in the absence of rhGM-CSF. Cells were then counted and dispensed into 96 well flat bottomed plates at a density of 4×10^4 cells per well. […] The samples were incubated in the presence of either 0.099 nM rhIL-6 (R&D Systems, cat. no. 206-IL/CF), 0.023 nM rhTNF (R&D Systems, cat. no. 210-TA) or a combination of both cytokines. The pre-mixtures were transferred to wells containing TF-1 cells which were incubated for 72 h at 37° C. in a humidified 5% CO2 atmosphere. During the last four hours of incubation, 10 μl of CCK-8 (Fluka, Sigma Aldrich) was added per well to determine the number of proliferating cells. The absorbance was measured at 450 nm (Abs450) using a microplate reader (VICTOR^3, Perkin Elmer). The data on cell growth was assessed by non-linear regression to a four-parameter dose-response curve, and the half maximal inhibitory concentration (IC50) was determined using GraphPad Prism program. The inhibition of IL-6/TNF-dependent proliferation of TF-1 cells by the inhibitory molecules was as Abs450 minus control wells that contained cells but no IL-6.

TNF = biological target: T1, TNF (Homo sapiens, UniProt P01375); experiment: ELISA binding activity of matured complexes, TNF (Example 13); settings: approximate; plates coated with 0.5 μg/ml TNF
T1 construct: purchased R&D Systems
Protocol: The binding of TNF and IL-6 targeting complexes was analyzed in an ELISA assay. Half-area 96-well ELISA plates were directly coated at 4° C. overnight with 0.5 μg/ml of TNF or IL-6 in PBS buffer and the wells were blocked with 100 μl of 3% skim milk/PBS (137 mM NaCl, 2.7 mM KCl, 10 mM Na2HPO4, 1.8 mM KH2PO4) for 1 h at RT. Next, 30 μl of serially diluted complexes and control antibodies from a starting concentration of 1 μg/ml in 3% skim milk/PBS were added to each well. The plates were incubated for 2 h at RT followed by washing four times with PBST 0.05%. HRP conjugated anti-human IgG Fc secondary antibody (Pierce, cat. no. 31423) was diluted 1:5000 in 3% skim milk/PBS and added to the wells followed by 1 h incubation. After washing as described above, 30 μl ImmunoPure TMB substrate (Pierce, cat. no. 34014) was added to the wells and the plates were treated according to the manufacturer's recommendations. Adalimumab (Abbvie, LOT4435XH04) was used as a positive control for the TNF binding activity and as a negative control for the IL-6 binding activity. Furthermore, an irrelevant IgG (Jackson Immunoresearch, cat. no. Jac-009-000-003) was included as a negative control in both assays.

[3] = test system: IL-6 trans-signaling in human umbilical vein endothelial cells (HUVECs); experiment: HUVEC trans-signaling assay, MCP-1 readout; type: cell-based; settings: Z variants fused to ABD variant PP013
Protocol: To address the trans-signaling pathway, a second assay was used. Herein, human umbilical vein endothelial cells (HUVECs) were stimulated with hIL-6 and soluble hIL-6Rα and the readout was the production of monocyte chemoattractant protein-1 (MCP-1). HUVECs (Lonza) were grown in EGM-2 bullet kit media (Lonza) and passaged in culture no more than eight times. Cells were grown until 75% confluence before use. Cells were detached using trypsin/EDTA (Lonza), resuspended and washed once in fresh medium. Next, cells were counted and dispensed into 96 well flat bottom plates at a density of 2×10^4 cells per well. Cells were cultured overnight at 37° C. in a humidified 5% CO2 atmosphere. […] The pre-mixed solutions with the test molecules and hIL-6/hIL-6Rα were then transferred to wells containing HUVECs, which were incubated for 24 h at 37° C. in a humidified 5% CO2 atmosphere. Cell free supernatant was collected after the incubation period and human MCP-1 levels were determined by sandwich ELISA using the MCP-1 Duoset ELISA development system (R&D Systems).
Half area 96-well ELISA plates were coated with anti-MCP-1 capture antibody (R&D Systems) at a concentration of 1 μg/ml. Plates were incubated overnight at 4° C., washed twice in tap water and blocked for 1 h in PBSC. […] The absorbance was measured at 450 nm using a microplate reader (Victor^3, Perkin Elmer).

T1 sequence (P01375 77-233 limits assumed): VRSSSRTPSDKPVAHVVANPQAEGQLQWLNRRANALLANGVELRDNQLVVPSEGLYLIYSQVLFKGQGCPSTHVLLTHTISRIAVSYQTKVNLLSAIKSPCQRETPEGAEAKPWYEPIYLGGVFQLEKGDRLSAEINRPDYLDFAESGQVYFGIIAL

tocilizumab
reduction of RA-related symptoms [1]: more effective than adalimumab

His6-Z04726: negative control Z variant Z04726 (SEQ ID NO:1553) with N-terminal His6-tag [reference compound]
blocking of TF-1 cell growth [2]: No effect

Adalimumab
EC50 (TNF): 0.077 nM

Z03638: control Z variant binding an irrelevant target; tested in fusion with ABD variant PP013 [reference compound]
inhibition of IL-6 mediated trans-signaling [3]: did not
